Reference: publication PMC8745178, “Methyl 2-Halo-4-Substituted-5-Sulfamoyl-Benzoates as High Affinity and Selective Inhibitors of Carbonic Anhydrase IX” (International Journal of Molecular Sciences, 2021)
“And” between values parts separate entries of the source, which are not always exact repeats. Identical values can stand only once.

Assays:
CAIV = CAIV (Homo sapiens, UniProt P22748); assay: fluorescent thermal shift assay (FTSA), CAIV; format: binding; conditions: 37 °C; for ΔGintr CAIV: converted from Kd_intr, independent of pH; for ΔGobs CAIV: converted from Kd_obs, pH 7.0, FTSA
CAVA = CAVA (Homo sapiens, UniProt P35218); assay: fluorescent thermal shift assay (FTSA), CAVA; format: binding; conditions: 37 °C; for ΔGintr CAVA: converted from Kd_intr, independent of pH; for ΔGobs CAVA: converted from Kd_obs, pH 7.0, FTSA
CAVI = CAVI (Homo sapiens, UniProt P23280); assay: fluorescent thermal shift assay (FTSA), CAVI; format: binding; conditions: 37 °C; for ΔGintr CAVI: converted from Kd_intr, independent of pH; for ΔGobs CAVI: converted from Kd_obs, pH 7.0, FTSA
CAXIII = CAXIII (Homo sapiens, UniProt Q8N1Q1); assay: fluorescent thermal shift assay (FTSA), CAXIII; format: binding; conditions: 37 °C; for ΔGintr CAXIII: converted from Kd_intr, independent of pH; for ΔGobs CAXIII: converted from Kd_obs, pH 7.0, FTSA
CAXIV = CAXIV (Homo sapiens, UniProt Q9ULX7); assay: fluorescent thermal shift assay (FTSA), CAXIV; format: binding; conditions: 37 °C; for ΔGintr CAXIV: converted from Kd_intr, independent of pH; for ΔGobs CAXIV: converted from Kd_obs, pH 7.0, FTSA
CAIX [1] = biological target: T1, CAIX (Homo sapiens, UniProt Q16790)
CAIII = CAIII (Homo sapiens, UniProt P07451); assay: fluorescent thermal shift assay (FTSA), CAIII; format: binding; conditions: 37 °C; for ΔGintr CAIII: converted from Kd_intr, independent of pH; for ΔGobs CAIII: converted from Kd_obs, pH 7.0, FTSA
[2] = 37 °C
CAII [3] = biological target: T2, CAII (Homo sapiens, UniProt P00918); assay: fluorescent thermal shift assay (FTSA), CAII; format: binding; conditions: 37 °C; for ΔGintr CAII: converted from Kd_intr, independent of pH; for ΔGobs CAII: converted from Kd_obs, pH 7.0, FTSA
CAI [4] = biological target: T3, CAI (Homo sapiens, UniProt P00915); assay: fluorescent thermal shift assay (FTSA), CAI; format: binding; conditions: 37 °C; for ΔGintr CAI: converted from Kd_intr, independent of pH; for ΔGobs CAI: converted from Kd_obs, pH 7.0, FTSA
CAVII = CAVII (Homo sapiens, UniProt P43166); assay: fluorescent thermal shift assay (FTSA), CAVII; format: binding; conditions: 37 °C; for ΔGobs CAVII: converted from Kd_obs, pH 7.0, FTSA; for ΔGintr CAVII: converted from Kd_intr, independent of pH
CAIX [5] = biological target: T1, CAIX; assay: fluorescent thermal shift assay (FTSA), CAIX; format: binding; conditions: for ΔGobs CAIX: pH 7
[6] = biological target: T4, mimic-CAIX (mutant of CAII: A65S, N67Q, I91L, F130V, V134L, L203A) (Homo sapiens, UniProt P00918, A65S/F130V/I91L/L203A/N67Q/V134L); conditions: intrinsic, calculated using pKa_CAZn(II)H2O of CAII, 37 °C
[7] = determination of pKa of the sulfonamide group by UV-VIS spectra at various pH; format: physicochemical; conditions: for f RSO2NH-, fraction of deprotonated sulfonamide: at pH 7.0, calculated from pKa; for pKa: calculated from spectra at various pH, 37 °C
CAXII [8] = biological target: T5, CAXII (Homo sapiens, UniProt O43570); conditions: for -TΔSintr CAXII / ΔHintr CAXII: intrinsic, 37 °C; for ΔHintr CAXII: independent of pH and buffer; for ΔHobs CAXII: observed, sodium phosphate buffer pH 7.0, 37 °C, ITC
[9] = biological target: T4, mimic-CAIX (mutant of CAII: A65S, N67Q, I91L, F130V, V134L, L203A)
CAVB = CAVB (Homo sapiens, UniProt Q9Y2D0); assay: fluorescent thermal shift assay (FTSA), CAVB; format: binding; conditions: 37 °C; for ΔGintr CAVB: converted from Kd_intr, independent of pH; for ΔGobs CAVB: converted from Kd_obs, pH 7.0, FTSA
[10] = solubility observed visually and in absorption spectra; format: physicochemical; design: key: low solubility, LS
CAXII [11] = biological target: T5, CAXII; assay: fluorescent thermal shift assay (FTSA), CAXII; format: binding; conditions: 37 °C; for ΔGintr CAXII: converted from Kd_intr, independent of pH; for ΔGobs CAXII: converted from Kd_obs, pH 7.0, FTSA
CAII [12] = assay: fluorescent thermal shift assay (FTSA), CAII; format: binding, human; conditions: intrinsic
CAI [13] = biological target: T3, CAI
CAII [14] = biological target: T2, CAII
[15] = intrinsic, 37 °C, independent of pH and buffer
[16] = observed, sodium phosphate buffer pH 7.0, 37 °C, ITC

CAVI, sequence (P23280 18-308): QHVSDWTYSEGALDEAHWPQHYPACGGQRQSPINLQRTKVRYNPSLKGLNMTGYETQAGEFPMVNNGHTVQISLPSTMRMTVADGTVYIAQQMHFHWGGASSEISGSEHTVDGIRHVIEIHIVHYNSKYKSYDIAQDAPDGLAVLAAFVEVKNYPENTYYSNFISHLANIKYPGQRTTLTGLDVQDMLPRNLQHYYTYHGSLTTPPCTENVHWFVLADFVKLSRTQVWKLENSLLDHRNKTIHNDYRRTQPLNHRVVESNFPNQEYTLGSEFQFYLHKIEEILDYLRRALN
CAIII, sequence (P07451 whole entry): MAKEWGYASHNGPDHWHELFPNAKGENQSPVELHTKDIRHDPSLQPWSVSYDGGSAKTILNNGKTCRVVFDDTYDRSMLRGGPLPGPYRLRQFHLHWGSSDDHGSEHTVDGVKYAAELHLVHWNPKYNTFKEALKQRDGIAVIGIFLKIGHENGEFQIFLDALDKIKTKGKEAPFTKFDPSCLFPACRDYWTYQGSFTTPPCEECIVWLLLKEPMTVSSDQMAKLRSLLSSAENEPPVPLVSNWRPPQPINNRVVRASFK
T5 sequence (O43570 25-354): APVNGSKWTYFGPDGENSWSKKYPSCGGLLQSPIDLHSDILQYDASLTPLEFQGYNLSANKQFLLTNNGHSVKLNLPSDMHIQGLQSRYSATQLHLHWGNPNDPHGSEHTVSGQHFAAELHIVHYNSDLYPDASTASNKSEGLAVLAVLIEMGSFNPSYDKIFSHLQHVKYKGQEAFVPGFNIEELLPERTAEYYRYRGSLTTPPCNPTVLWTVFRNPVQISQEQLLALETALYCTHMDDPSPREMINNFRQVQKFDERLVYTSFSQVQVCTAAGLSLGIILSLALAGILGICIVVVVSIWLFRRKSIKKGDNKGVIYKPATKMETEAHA
CAVB, sequence (Q9Y2D0 34-317): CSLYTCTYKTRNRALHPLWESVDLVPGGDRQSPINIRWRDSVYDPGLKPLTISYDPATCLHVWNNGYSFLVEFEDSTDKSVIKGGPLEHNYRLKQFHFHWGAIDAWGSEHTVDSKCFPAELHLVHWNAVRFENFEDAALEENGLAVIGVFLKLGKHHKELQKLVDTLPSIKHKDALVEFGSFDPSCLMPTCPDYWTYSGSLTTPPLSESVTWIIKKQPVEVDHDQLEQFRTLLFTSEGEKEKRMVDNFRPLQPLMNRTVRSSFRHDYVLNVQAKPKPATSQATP
CAIV, sequence (P22748 19-312): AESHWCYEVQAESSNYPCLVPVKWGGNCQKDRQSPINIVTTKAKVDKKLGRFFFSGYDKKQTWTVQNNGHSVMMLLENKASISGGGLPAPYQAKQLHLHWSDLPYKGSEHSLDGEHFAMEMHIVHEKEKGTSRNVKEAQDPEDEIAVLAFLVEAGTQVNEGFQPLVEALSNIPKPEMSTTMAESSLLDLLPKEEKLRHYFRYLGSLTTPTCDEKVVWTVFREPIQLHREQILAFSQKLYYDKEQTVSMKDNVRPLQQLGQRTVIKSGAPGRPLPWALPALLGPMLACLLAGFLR
CAXIV, sequence (Q9ULX7 16-337): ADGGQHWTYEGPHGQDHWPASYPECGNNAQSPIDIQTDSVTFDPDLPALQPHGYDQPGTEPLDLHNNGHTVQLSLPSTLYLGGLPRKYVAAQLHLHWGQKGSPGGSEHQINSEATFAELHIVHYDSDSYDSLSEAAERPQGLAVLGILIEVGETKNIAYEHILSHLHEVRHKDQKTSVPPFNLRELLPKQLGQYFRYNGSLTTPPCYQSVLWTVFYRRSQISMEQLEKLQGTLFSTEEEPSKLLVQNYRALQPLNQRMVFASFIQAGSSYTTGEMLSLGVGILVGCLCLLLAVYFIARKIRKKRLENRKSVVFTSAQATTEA
T3 sequence (P00915 whole entry): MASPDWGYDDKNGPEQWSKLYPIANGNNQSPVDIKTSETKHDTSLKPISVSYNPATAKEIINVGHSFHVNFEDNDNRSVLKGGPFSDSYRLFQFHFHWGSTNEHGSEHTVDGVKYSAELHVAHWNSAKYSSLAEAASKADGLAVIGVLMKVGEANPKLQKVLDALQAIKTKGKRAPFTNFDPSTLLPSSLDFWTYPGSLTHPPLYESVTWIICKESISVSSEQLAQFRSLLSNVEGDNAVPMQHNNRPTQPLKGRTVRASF
CAVII, sequence (P43166 whole entry): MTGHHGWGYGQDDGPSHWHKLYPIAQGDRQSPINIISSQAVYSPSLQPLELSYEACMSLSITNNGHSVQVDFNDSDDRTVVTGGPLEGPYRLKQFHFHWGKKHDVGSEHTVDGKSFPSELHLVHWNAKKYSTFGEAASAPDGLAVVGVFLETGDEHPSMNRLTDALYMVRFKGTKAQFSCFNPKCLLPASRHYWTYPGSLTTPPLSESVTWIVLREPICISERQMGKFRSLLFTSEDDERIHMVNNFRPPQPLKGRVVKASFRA
CAXIII, sequence (Q8N1Q1 whole entry): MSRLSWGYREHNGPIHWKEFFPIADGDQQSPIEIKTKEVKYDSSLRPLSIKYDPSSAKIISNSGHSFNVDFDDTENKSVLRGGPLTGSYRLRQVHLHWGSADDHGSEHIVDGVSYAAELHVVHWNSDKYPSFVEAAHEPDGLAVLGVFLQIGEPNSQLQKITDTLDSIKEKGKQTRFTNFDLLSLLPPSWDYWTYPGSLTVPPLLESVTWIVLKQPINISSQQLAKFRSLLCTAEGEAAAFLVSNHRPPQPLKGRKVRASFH
CAVA, sequence (P35218 39-305): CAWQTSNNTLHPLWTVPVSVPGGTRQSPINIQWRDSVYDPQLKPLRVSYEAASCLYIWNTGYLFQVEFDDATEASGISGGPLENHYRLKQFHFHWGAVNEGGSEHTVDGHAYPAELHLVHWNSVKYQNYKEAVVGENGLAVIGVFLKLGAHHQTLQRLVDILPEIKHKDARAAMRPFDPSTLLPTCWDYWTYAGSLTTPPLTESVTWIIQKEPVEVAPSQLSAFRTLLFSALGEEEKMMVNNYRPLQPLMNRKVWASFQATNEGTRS

| SMILES | ΔGintr CAIV (CAIV) | ΔGobs CAIV (CAIV) | ΔGintr CAVA (CAVA) | ΔGobs CAVA (CAVA) | ΔGintr CAVI (CAVI) | ΔGobs CAVI (CAVI) | ΔGobs CAXIII (CAXIII) | ΔGintr CAXIV (CAXIV) | ΔGobs CAXIV (CAXIV) | ΔGintr CAII (CAII [3]) | ΔGobs CAII (CAII [3]) | ΔGintr CAI (CAI [4]) | ΔGobs CAI (CAI [4]) | ΔGobs CAVII (CAVII) | ΔGintr CAIX (CAIX [5]) | ΔGobs CAIX (CAIX [5]) | f RSO2NH-, fraction of deprotonated sulfonamide [7] | ΔGintr CAVB (CAVB) | ΔGobs CAVB (CAVB) | ΔGintr CAVII (CAVII) | other results |
| --- | --- | --- | --- | --- | --- | --- | --- | --- | --- | --- | --- | --- | --- | --- | --- | --- | --- | --- | --- | --- | --- |
| COC(=O)c1cc(S(N)(=O)=O)c(SC2CCCCC2)cc1Cl [Compound 3b, Methyl 2-chloro-4-(cyclohexylsulfanyl)-5-sulfamoylbenzoate] | -13.6 kcal/mol | -9.08 kcal/mol | -9.61 kcal/mol | -5.66 kcal/mol | -14.4 kcal/mol | -9.2 kcal/mol | -10.3 kcal/mol | -15.5 kcal/mol | -11.2 kcal/mol | -13.6 kcal/mol | -9.37 kcal/mol | -10.5 kcal/mol | -6.79 kcal/mol | -9.68 kcal/mol | -17.9 kcal/mol | -13.5 kcal/mol | 0.3% and 0.25% | -11.1 kcal/mol | -7.03 kcal/mol | – | ΔGintr CAXIII (CAXIII): -14.1 kcal/mol; -TΔSintr CAIX (CAIX [1]; intrinsic, 37 °C): -10.8 kcal/mol; ΔHintr CAIX (CAIX [1]; [15]): -7.15 kcal/mol; ΔHobs CAIX (CAIX [1]; [16]): -2.51 kcal/mol; ΔGintr CAIII (CAIII): -10.8 kcal/mol; ΔGobs CAIII (CAIII): -6.24 kcal/mol; Δp_RSO2NH2H, protonation enthalpy of sulfonamide group [2]: -8.53 kcal/mol; binding affinity, times stronger to CAIX than CAXII (CAIX [5]): 150 times; native CAIX bound more strongly than mimic-CAIX (CAIX [5]): 10 fold; ΔGintr mimic-CAIX [6]: -16.1 kcal/mol; pKa [7]: 9.6; -TΔSintr CAXII (CAXII [8]): -3.42 kcal/mol; ΔHintr CAXII (CAXII [8]): -11.5 kcal/mol; ΔHobs CAXII (CAXII [8]): -6.96 kcal/mol; ΔHintr mimic CAIX ([9]; intrinsic, 37 °C, calculated using protonation enthalpy of CAII): -7.46 kcal/mol; ΔHobs mimic CAIX [9, 16]: -2.39 kcal/mol |
| COC(=O)c1cc(S(N)(=O)=O)c(SCCc2ccccc2)cc1Cl [Compound 3d, Methyl 2-chloro-4-[(2-phenylethyl)sulfanyl]-5-sulfamoylbenzoate] | – | – | -9.54 kcal/mol | -5.59 kcal/mol | -14 kcal/mol | -8.8 kcal/mol | -10.5 kcal/mol | -14.7 kcal/mol | -10.4 kcal/mol | -13.8 kcal/mol | -9.61 kcal/mol | -10.7 kcal/mol | -6.93 kcal/mol | -9.94 kcal/mol | -15.7 kcal/mol | -11.2 kcal/mol | 0.3% and 0.25% | -11.2 kcal/mol | -7.1 kcal/mol | -14.2 kcal/mol | Δp_RSO2NH2H, protonation enthalpy of sulfonamide group [2]: -9.8 kcal/mol; pKa [7]: 9.6; ΔHintr CAXII (CAXII [8]): -12 kcal/mol; ΔHobs CAXII (CAXII [8]): -6.19 kcal/mol |
| COC(=O)c1cc(S(N)(=O)=O)c(Cl)cc1SC1CCCCC1 [Compound 5b, Methyl 4-chloro-2-cyclohexylsulfanyl-5-sulfamoylbenzoate] | -14.4 kcal/mol | -10.2 kcal/mol | -11.3 kcal/mol | -7.65 kcal/mol | – | -9.49 kcal/mol | -11.4 kcal/mol | -15.8 kcal/mol | -11.8 kcal/mol | -14.8 kcal/mol | -10.9 kcal/mol | -12.6 kcal/mol | -9.2 kcal/mol | -10.9 kcal/mol | -15.7 kcal/mol | -11.5 kcal/mol | 0.4% | -15.5 kcal/mol | -11.7 kcal/mol | -14.9 kcal/mol | ΔGintr CAXIII (CAXIII): -14.8 kcal/mol; ΔGobs CAIII (CAIII): ≥ -5.26 kcal/mol; Δp_RSO2NH2H, protonation enthalpy of sulfonamide group [2]: -7.96 kcal/mol; pKa [7]: 9.4; -TΔSintr CAXII (CAXII [8]): -4.76 kcal/mol; ΔHintr CAXII (CAXII [8]): -10.4 kcal/mol; ΔHobs CAXII (CAXII [8]): -6.5 kcal/mol; N (ITC, observed fitted parameter) CAXII (CAXII [8]; single repeats, pH 7.0, 37 °C, Figure S8): 1.0 and 1.1 |
| COC(=O)c1cc(S(N)(=O)=O)c(S(=O)(=O)Cc2ccccc2)cc1Cl [Compound 7c, Methyl 4-benzylsulfonyl-2-chloro-5-sulfamoylbenzoate] | -12.2 kcal/mol | -7.43 kcal/mol | ≥ -9.46 kcal/mol | ≥ -5.26 kcal/mol | -10.9 kcal/mol | -5.5 kcal/mol | -5.47 kcal/mol | -11.9 kcal/mol | -7.34 kcal/mol | ≥ -9.78 kcal/mol | ≥ -5.28 kcal/mol | ≥ -9.27 kcal/mol | ≥ -5.26 kcal/mol | ≥ -5.26 kcal/mol | -13.4 kcal/mol | -8.65 kcal/mol | 0.2% | ≥ -9.66 kcal/mol | ≥ -5.26 kcal/mol | ≥ -9.8 kcal/mol | ΔGintr CAXIII (CAXIII): -9.51 kcal/mol; ΔGintr CAIII (CAIII): ≥ -10.1 kcal/mol; ΔGobs CAIII (CAIII): ≥ -5.26 kcal/mol; solubility [10]: LS; ΔGintr CAXII (CAXII [11]): -11.9 kcal/mol; ΔGobs CAXII (CAXII [11]): -7.34 kcal/mol |
| COC(=O)c1cc(S(N)(=O)=O)c(S(=O)(=O)CCc2ccccc2)cc1Cl [Compound 7d, Methyl 2-chloro-4-(2-phenylethylsulfonyl)-5-sulfamoylbenzoate] | ≥ -9.99 kcal/mol | ≥ -5.26 kcal/mol | ≥ -9.46 kcal/mol | ≥ -5.26 kcal/mol | -10.9 kcal/mol | -5.5 kcal/mol | -6.6 kcal/mol | ≥ -9.8 kcal/mol | ≥ -5.26 kcal/mol | ≥ -9.73 kcal/mol | ≥ -5.26 kcal/mol | -9.27 kcal/mol | – | ≥ -5.26 kcal/mol | -12.1 kcal/mol | -7.34 kcal/mol | 0.2% | ≥ -9.66 kcal/mol | ≥ -5.26 kcal/mol | ≥ -9.8 kcal/mol | ΔGintr CAXIII (CAXIII): -10.6 kcal/mol; ΔGintr CAIII (CAIII): ≥ -10.1 kcal/mol; ΔGobs CAIII (CAIII): ≥ -5.26 kcal/mol; solubility [10]: LS; ΔGintr CAXII (CAXII [11]): -10.9 kcal/mol; ΔGobs CAXII (CAXII [11]): -6.33 kcal/mol |
| COC(=O)c1cc(S(N)(=O)=O)c(Cl)cc1S(=O)(=O)c1ccccc1 [Compound 9a, Methyl 2-(benzenesulfonyl)-4-chloro-5-sulfamoylbenzoate] | – | – | – | – | -13.5 kcal/mol | -10.3 kcal/mol | -11.7 kcal/mol | – | -12.9 kcal/mol | -15.1 kcal/mol | -12.8 kcal/mol | -11.5 kcal/mol | -9.7 kcal/mol | -13.3 kcal/mol | – | -12 kcal/mol | 5.9% and 5.94% | -13.3 kcal/mol | -11.2 kcal/mol | -15.6 kcal/mol | Δp_RSO2NH2H, protonation enthalpy of sulfonamide group [2]: -6.91 kcal/mol; binding to CAII stronger than to CAXII (factor) (CAII [12]): 26 fold; ΔHintr CAI (CAI [13]; [15]): -9.49 kcal/mol; ΔHobs CAI (CAI [13]; [16]): -4.25 kcal/mol; pKa [7]: 8.2; ΔHintr CAII (CAII [14]; [15]): -5.57 kcal/mol; ΔHobs CAII (CAII [14]; [16]): -2.46 kcal/mol; -TΔSintr CAXII (CAXII [8]): -4.11 kcal/mol; ΔHintr CAXII (CAXII [8]): -9.08 kcal/mol; ΔHobs CAXII (CAXII [8]): -6.55 kcal/mol |
